Measured values taken from patent publication US4857546A, “Novel HMG-CoA reductase inhibitors” (Merck & Co., Inc., priority 1988, dated 1989).

target: T1, HMG-CoA reductase (Rattus norvegicus, UniProt P51639); assay: intrinsic HMG-CoA reductase inhibition, in vitro protocol of J. Med. Chem. 28, 347-358 (1985); type: biochemical; settings: IC50 of test compound compared with that of compactin (mevastatin) determined simultaneously; compactin assigned 100
T1 sequence (P51639 1-887): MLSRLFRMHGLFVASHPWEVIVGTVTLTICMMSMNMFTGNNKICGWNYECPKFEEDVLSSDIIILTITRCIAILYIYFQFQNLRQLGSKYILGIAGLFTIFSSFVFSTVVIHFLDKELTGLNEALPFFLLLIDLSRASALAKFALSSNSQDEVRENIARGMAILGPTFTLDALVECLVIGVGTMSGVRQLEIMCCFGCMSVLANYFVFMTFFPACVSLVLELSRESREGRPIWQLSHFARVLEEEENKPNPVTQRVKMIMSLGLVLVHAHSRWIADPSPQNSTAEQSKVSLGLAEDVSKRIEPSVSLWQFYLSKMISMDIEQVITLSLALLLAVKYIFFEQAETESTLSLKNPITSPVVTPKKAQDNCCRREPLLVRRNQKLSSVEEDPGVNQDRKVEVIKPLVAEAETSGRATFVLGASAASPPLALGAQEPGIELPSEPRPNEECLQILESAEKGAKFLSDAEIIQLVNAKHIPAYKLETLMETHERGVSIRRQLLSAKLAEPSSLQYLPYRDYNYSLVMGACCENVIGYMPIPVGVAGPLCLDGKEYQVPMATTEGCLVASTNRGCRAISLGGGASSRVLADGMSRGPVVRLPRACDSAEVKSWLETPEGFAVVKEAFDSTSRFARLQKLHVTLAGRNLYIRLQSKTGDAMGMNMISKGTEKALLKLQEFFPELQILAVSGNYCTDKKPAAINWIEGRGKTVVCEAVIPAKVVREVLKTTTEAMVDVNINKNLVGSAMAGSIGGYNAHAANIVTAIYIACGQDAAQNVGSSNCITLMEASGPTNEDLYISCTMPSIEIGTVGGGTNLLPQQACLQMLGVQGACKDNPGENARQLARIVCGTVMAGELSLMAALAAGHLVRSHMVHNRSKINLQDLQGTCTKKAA
Method: The intrinsic HMG-CoA reductase inhibition activity of the claimed compounds is measured in the in vitro protocol published in J. Med. Chem. 28, p. 347-358 (1985).
For estimation of relative inhibitory potencies, mevastatin (compactin) was assigned a value of 100 and the IC50 value of the test compound was compared with that of compactin determined simultaneously in the published in vitro protocol.

SMILES | Relative Potency
CCC(C)(C)C(=O)O[C@H]1C[C@H](CNCc2ccccc2)C=C2C=C[C@H](C)[C@H](CC[C@@H]3C[C@@H](O)CC(=O)O3)[C@H]21 [Example 2, 6(R)-[2-[8(S)-(2,2-dimethylbutyryloxy)-2(S)-methyl-6(S)-benzylaminomethyl-1,2,6,7,8, 8a(R)-hexahydronaphthyl-1(S)]ethyl]-4(R)-hydroxy-3,4,5,6-tetrahydro-2H-pyran-2-one] | 167
CCC(C)(C)C(=O)O[C@H]1C[C@H](CN)C=C2C=C[C@H](C)[C@H](CC[C@@H](O)C[C@@H](O)CC(=O)O)[C@H]21 [Example 1] | 125
CCC(C)(C)C(=O)O[C@H]1C[C@H](CNC(=O)Nc2ccccc2)C=C2C=C[C@H](C)[C@H](CC[C@@H]3C[C@@H](O)CC(=O)O3)[C@H]21 [Example 4, 6(R)-[2-[8(S)-(2,2-dimethylbutyryloxy)-2(S)-methyl-6(S)-phenylureidomethyl-1,2,6,7,8,8a(R)-hexahydronaphthyl-1(S)]ethyl]-4(R)-hydroxy-3,4,5,6-tetrahydro-2H-pyran-2-one] | 294
CCC(C)(C)C(=O)O[C@H]1C[C@H](CNC(=O)NCc2ccccc2)C=C2C=C[C@H](C)[C@H](CC[C@@H]3C[C@@H](O)CC(=O)O3)[C@H]21 [Example 5, 6(R)-[2-[8(S)-(2,2-dimethylbutyryloxy)-2(S)-methyl-6(S)-benzylureidomethyl-1,2,6,7,8,8a(R)-hexahydronaphthyl-1(S)]ethyl]-4(R)-hydroxy-3,4,5,6-tetrahydro-2H-pyran-2-one] | 500
CCC(C)(C)C(=O)O[C@H]1C[C@H](CNC(=O)c2ccccc2)C=C2C=C[C@H](C)[C@H](CC[C@@H]3C[C@@H](O)CC(=O)O3)[C@H]21 [Example 3, 6(R)-[2-[8(S)-(2,2-dimethylbutyryloxy)-2(S)-methyl-6(S)-phenylcarbonylaminomethyl-1,2,6,7,8,8a(R)-hexahydronaphthyl-1(S)]ethyl]-4(R)-hydroxy-3,4,5,6-tetrahydro-2H-pyran-2-one] | 300
